Assay results: patent publication US8748481B2, “Method for treating gastrointestinal disorder” (Sucampo AG, priority 2004, dated 2014)
Marks after values point to notes of the source that are not given here.

Assays:
Type in all cases: in vivo, human
[1] = test system: subjects with occasional constipation; test: MOS SF-36 quality of life assessment, 48-week study (Example 6)
Protocol: A 48-week multi-center study was performed to assess the safety and efficacy of 48 μg (total daily dose) of Compound A to subjects with occasional constipation. […] After 14-day drug-free washout period, they received orally 48 μg of Compound A (24 μg of […], b.i.d) daily for 48 weeks.
The subjects completed the Medical Outcomes Study (MOS) 36-item short form (SF-36), i.e., a conventionally used QOL assessment form, at enrollment (baseline) and end of treatment (Week 48). Components of the MOS SF-36 (Med Care 30(6),473-483, 1992) are outlined below: • Physical component: Physical Function; Role-Physical, Bodily Pain and General Health • Mental component: Vitality, Social Function, Role-Emotional and Mental Health
Each of the 8 components was scored within the guidelines of the publisher, including the publisher's guidelines for imputing missing variables. The change from baseline in each of the 8 component scores at the end of treatment (Week 48) were recorded and evaluated with paired t-tests.

[2] = test system: different aged patients with occasional constipation; test: Weekly number of spontaneous bowel movements by age (Example 5); settings: 48 μg/day, 4 weeks; all aged groups, even 65 years and older
Protocol: Multi-center, parallel-group, double-blind, placebo-controlled study was performed to compare the effect of Compound A on improving weekly number of spontaneous bowel movements among different aged patients with occasional constipation. The patients were received 48 μg (total daily dose) of Compound A (24 μg of Compound A b.i.d) for 4 weeks. The bowel movements in the patient were recorded during the treatment.

[3] = test system: patients with chronic constipation; test: Randomized withdrawal study, post-treatment response after 4 weeks of active treatment (Example 2)
Protocol: Multi-center, double-blind, randomized, placebo-controlled study was performed to assess post-treatment response, in a portion of the total population, after four (4) weeks of active treatment (48 μg Compound A total daily dose) and three (3) weeks randomized withdrawal period. […] After 14-day drug-free washout period, they received orally 48 μg (total daily dose) of Compound A for 28 days followed by either 0 or 48 μg (total daily dose) of Compound A for 21 days.
In this study, the following parameters were evaluated. • 1) Bowel movements per week • 2) Abdominal bloating • 3) Abdominal discomfort • 4) Severity of Constipation • 5) Straining • 6) Consistency
Each parameter (Abdominal bloating, Abdominal discomfort, Severity of Constipation or Straining) was evaluated on the scale of: 0 (absent), 1 (mild), 2 (moderate), 3 (severe) and 4 (very severe) in the patients. Consistency was evaluated on a scale of: 0 (very loose), 1 (loose), 2 (normal), 3 (hard) and 4 (very hard, little balls)

[4] = Serum electrolyte balance, open-label 24/48-week safety study (Example 1)
Protocol: Multi-center, open-label study was performed to evaluate the safety of 48 μg of Compound A (13,14-dihydro-15-keto-16,16-difluoro-PGE1) (24 μg of Compound A b.i.d) when administered daily for 24 weeks (6 months) or 48 weeks (12 months) to subjects with occasional constipation. […] After 14-day drug-free washout period, they received 48 μg of Compound A (24 μg of Compound A b.i.d) orally for 48 weeks.
Sodium, potassium, chloride, calcium, magnesium and phosphorus ion concentrations in serum of patients (n=299) were measured before, and at 6, 12, 18, 24, 30, 36, 48 and 50 weeks after the start of the Compound A treatment.
The laboratory standard values for the panel of electrolytes were taken from the normal reference ranges for the central laboratory.

[5] = 48 μg/day for 28 days, then 3 weeks withdrawal
[6] = Week 50 after start of 48-week treatment

For `CCCCC(F)(F)C(=O)CCC1C(O)CC(=O)C1CCCCCCC(=O)O` (stereo not shown) [Compound A, 13,14-dihydro-15-keto-16,16-difluoro-PGE1], the “Effect on QOL of the patients (SF-36)” value ([1]; 48 μg/day, 48 weeks) was “improves the QOL”, the “SF36 Bodily Pain score, Mean” value ([1]; Baseline) was 47.53 and the “SF36 General Health score, Mean” value ([1]; Baseline) was 51.52. For the same compound, the “SF36 Mental Health score, Mean” value ([1]; Baseline) was 50.60, the “SF36 Physical Function score, Mean” value ([1]; Baseline) was 49.04 and the “SF36 Role-Emotional score, Mean” value ([1]; Baseline) was 49.52. For the same compound, the “SF36 Role-Physical score, Mean” value ([1]; Baseline) was 49.75, the “SF36 Social Function score, Mean” value ([1]; Baseline) was 50.12 and the “SF36 Vitality score, Mean” value ([1]; Baseline) was 50.61. For the same compound, the “SF36 Bodily Pain score, Mean change from baseline” value ([1]; Week 48, 48 μg/day) was 3.38**, the “SF36 General Health score, Mean change from baseline” value ([1]; Week 48, 48 μg/day) was 1.47* and the “SF36 Mental Health score, Mean change from baseline” value ([1]; Week 48, 48 μg/day) was 1.97**. The “SF36 Physical Function score, Mean change from baseline” value ([1]; Week 48, 48 μg/day) was 2.48**, the “SF36 Role-Emotional score, Mean change from baseline” value ([1]; Week 48, 48 μg/day) was 1.22 and the “SF36 Role-Physical score, Mean change from baseline” value ([1]; Week 48, 48 μg/day) was 1.95**. The “SF36 Social Function score, Mean change from baseline” value ([1]; Week 48, 48 μg/day) was 2.22**, the “SF36 Vitality score, Mean change from baseline” value ([1]; Week 48, 48 μg/day) was 2.89** and the “Effect on weekly number of spontaneous bowel movements by age (FIG. 14)” value [2] was “significantly effective”. The “Quality of life of the patients” value ([3]; 48 μg/day) was “improved”, the “Efficacy after stopping the treatment (FIGS. 7 to 12)” value [3, 5] was “sustained” and the “Rebound effect after discontinuation of treatment (FIGS. 7 to 12)” value [3, 5] was “substantially no rebound effect”. The “Effect on sodium, potassium, chloride, calcium, magnesium and phosphorus ion concentration in serum” value ([4]; 48 μg/day, long-term administration up to 48 weeks) was “no effect”, the “Mean serum Calcium” value ([4]; Week 0 (before treatment)) was 9.61 mg/dL and the “Mean serum Chloride” value ([4]; Week 0 (before treatment)) was 103.08 mmol/L. The “Mean serum Magnesium” value ([4]; Week 0 (before treatment)) was 2.18 mg/dL, the “Mean serum Phosphorus” value ([4]; Week 0 (before treatment)) was 3.65 mg/dL and the “Mean serum Potassium” value ([4]; Week 0 (before treatment)) was 4.28 mmol/L. The “Mean serum Sodium” value ([4]; Week 0 (before treatment)) was 141.00 mmol/L, the “Mean serum Calcium” value ([4]; Week 6, 48 μg/day oral) was 9.90 mg/dL and the “Mean serum Chloride” value ([4]; Week 6, 48 μg/day oral) was 103.00 mmol/L. The “Mean serum Magnesium” value ([4]; Week 6, 48 μg/day oral) was 2.23 mg/dL, the “Mean serum Phosphorus” value ([4]; Week 6, 48 μg/day oral) was 3.20 mg/dL and the “Mean serum Potassium” value ([4]; Week 6, 48 μg/day oral) was 4.28 mmol/L. The “Mean serum Sodium” value ([4]; Week 6, 48 μg/day oral) was 142.25 mmol/L, the “Mean serum Calcium” value ([4]; Week 12, 48 μg/day oral) was 9.71 mg/dL and the “Mean serum Chloride” value ([4]; Week 12, 48 μg/day oral) was 103.08 mmol/L. The “Mean serum Magnesium” value ([4]; Week 12, 48 μg/day oral) was 2.24 mg/dL, the “Mean serum Phosphorus” value ([4]; Week 12, 48 μg/day oral) was 3.57 mg/dL and the “Mean serum Potassium” value ([4]; Week 12, 48 μg/day oral) was 4.20 mmol/L. For the same compound, the “Mean serum Sodium” value ([4]; Week 12, 48 μg/day oral) was 139.78 mmol/L, the “Mean serum Calcium” value ([4]; Week 18, 48 μg/day oral) was 9.30 mg/dL and the “Mean serum Chloride” value ([4]; Week 18, 48 μg/day oral) was 105.50 mmol/L. For the same compound, the “Mean serum Magnesium” value ([4]; Week 18, 48 μg/day oral) was 2.35 mg/dL, the “Mean serum Phosphorus” value ([4]; Week 18, 48 μg/day oral) was 3.55 mg/dL and the “Mean serum Potassium” value ([4]; Week 18, 48 μg/day oral) was 4.40 mmol/L. The “Mean serum Sodium” value ([4]; Week 18, 48 μg/day oral) was 141.50 mmol/L, the “Mean serum Calcium” value ([4]; Week 24, 48 μg/day oral) was 9.77 mg/dL and the “Mean serum Chloride” value ([4]; Week 24, 48 μg/day oral) was 102.56 mmol/L. The “Mean serum Magnesium” value ([4]; Week 24, 48 μg/day oral) was 2.21 mg/dL, the “Mean serum Phosphorus” value ([4]; Week 24, 48 μg/day oral) was 3.61 mg/dL and the “Mean serum Potassium” value ([4]; Week 24, 48 μg/day oral) was 4.19 mmol/L. The “Mean serum Sodium” value ([4]; Week 24, 48 μg/day oral) was 139.21 mmol/L, the “Mean serum Calcium” value ([4]; Week 30, 48 μg/day oral) was 9.10 mg/dL and the “Mean serum Chloride” value ([4]; Week 30, 48 μg/day oral) was 100.00 mmol/L. For the same compound, the “Mean serum Magnesium” value ([4]; Week 30, 48 μg/day oral) was 2.30 mg/dL, the “Mean serum Phosphorus” value ([4]; Week 30, 48 μg/day oral) was 2.50 mg/dL and the “Mean serum Potassium” value ([4]; Week 30, 48 μg/day oral) was 4.30 mmol/L. For the same compound, the “Mean serum Sodium” value ([4]; Week 30, 48 μg/day oral) was 136.00 mmol/L, the “Mean serum Calcium” value ([4]; Week 36, 48 μg/day oral) was 9.67 mg/dL and the “Mean serum Chloride” value ([4]; Week 36, 48 μg/day oral) was 102.51 mmol/L. For the same compound, the “Mean serum Magnesium” value ([4]; Week 36, 48 μg/day oral) was 2.19 mg/dL, the “Mean serum Phosphorus” value ([4]; Week 36, 48 μg/day oral) was 3.58 mg/dL and the “Mean serum Potassium” value ([4]; Week 36, 48 μg/day oral) was 4.18 mmol/L. For the same compound, the “Mean serum Sodium” value ([4]; Week 36, 48 μg/day oral) was 138.94 mmol/L, the “Mean serum Calcium” value ([4]; Week 48, 48 μg/day oral) was 9.66 mg/dL and the “Mean serum Chloride” value ([4]; Week 48, 48 μg/day oral) was 102.88 mmol/L. The “Mean serum Magnesium” value ([4]; Week 48, 48 μg/day oral) was 2.14 mg/dL, the “Mean serum Phosphorus” value ([4]; Week 48, 48 μg/day oral) was 3.50 mg/dL and the “Mean serum Potassium” value ([4]; Week 48, 48 μg/day oral) was 4.20 mmol/L. The “Mean serum Sodium” value ([4]; Week 48, 48 μg/day oral) was 139.59 mmol/L, the “Mean serum Calcium” value [4, 6] was 9.47 mg/dL and the “Mean serum Chloride” value [4, 6] was 102.67 mmol/L. For the same compound, the “Mean serum Magnesium” value [4, 6] was 2.31 mg/dL, the “Mean serum Phosphorus” value [4, 6] was 3.54 mg/dL and the “Mean serum Potassium” value [4, 6] was 4.49 mmol/L. For the same compound, the “Mean serum Sodium” value [4, 6] was 139.11 mmol/L.
